Results published in the supplement of paper PMC11208160.

Assay: recombinant barcode read abundance after kanamycin selection (control-corrected) (log10(CPM+1)); higher = more efficient recombination; sequences stand for … in AGTGCAGAGAAAATCGGCCAGTTTTCTCTGCCTGCAGTCCGCATGCCGT…ATTTATGCAGCGGACTGCCTTTCTCCCAAAGTGATAAACCGGACAGTATCATGGACCGGTTTTCCCGGTAATCCGTATTTGCAAGGTTGGTTTCACT; site = the 11-nt target
In short: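 Values are log10(CPM+1) from a pooled E. coli screen of targets paired with IS621 bridge RNA target-binding loops. Recombination efficiency here means counts per million of recombinant-junction barcodes, averaged and control-corrected. Plates were chloramphenicol/ampicillin LB agar for the control and chloramphenicol/ampicillin/kanamycin with 0.1 mM IPTG, two replicates each.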

Sequence	recombinant barcode read abundance (log10)
GAGTCCTCTTGGGTTCTAACCTGTTGCCTAA [GAGTCCTCTAG_LTGcore_CT_RTGcore_TT] (site GAGTCCTCTAG) (LTG core: CT, RTG core: TT)	1.08
GAGTCCTCTTGGGTTCTAACCTGTTGCCTCC [GAGTCCTCTAG_LTGcore_CT_RTGcore_GG] (site GAGTCCTCTAG) (LTG core: CT, RTG core: GG)	1.21
GAGTCCTGCTGGGTTCTAACCTGTTGCCTAG [GAGTCCTCTAG_LTGcore_GC_RTGcore_CT] (site GAGTCCTCTAG) (LTG core: GC, RTG core: CT)	0.0703
GAGTCCTTATGGGTTCTAACCTGTTGCCTTA [GAGTCCTCTAG_LTGcore_TA_RTGcore_TA] (site GAGTCCTCTAG) (LTG core: TA, RTG core: TA)	0.136
GAGTCCTTCTGGGTTCTAACCTGTTGCCTAG [GAGTCCTCTAG_LTGcore_TC_RTGcore_CT] (site GAGTCCTCTAG) (LTG core: TC, RTG core: CT)	0.0148
GAGTCCTTCTGGGTTCTAACCTGTTGCCTGA [GAGTCCTCTAG_LTGcore_TC_RTGcore_TC] (site GAGTCCTCTAG) (LTG core: TC, RTG core: TC)	0.0603
GAGTCCTTGTGGGTTCTAACCTGTTGCCTCA [GAGTCCTCTAG_LTGcore_TG_RTGcore_TG] (site GAGTCCTCTAG) (LTG core: TG, RTG core: TG)	0.235
GCGCGACAATGGGTTCTAACCTGTTGCTTTT [GCGCGACCTAA_LTGcore_AA_RTGcore_AA] (site GCGCGACCTAA) (LTG core: AA, RTG core: AA)	0.188
GCGCGACCATGGGTTCTAACCTGTTGCTTTG [GCGCGACCTAA_LTGcore_CA_RTGcore_CA] (site GCGCGACCTAA) (LTG core: CA, RTG core: CA)	0.125
GCGCGACCCTGGGTTCTAACCTGTTGCTTGG [GCGCGACCTAA_LTGcore_CC_RTGcore_CC] (site GCGCGACCTAA) (LTG core: CC, RTG core: CC)	0.0343
GCGCGACCTTGGGTTCTAACCTGTTGCTTAA [GCGCGACCTAA_LTGcore_CT_RTGcore_TT] (site GCGCGACCTAA) (LTG core: CT, RTG core: TT)	0.166
GCGCGACCTTGGGTTCTAACCTGTTGCTTAT [GCGCGACCTAA_LTGcore_CT_RTGcore_AT] (site GCGCGACCTAA) (LTG core: CT, RTG core: AT)	0.103
GCGCGACCTTGGGTTCTAACCTGTTGCTTCA [GCGCGACCTAA_LTGcore_CT_RTGcore_TG] (site GCGCGACCTAA) (LTG core: CT, RTG core: TG)	0.481
GCGCGACCTTGGGTTCTAACCTGTTGCTTCG [GCGCGACCTAA_LTGcore_CT_RTGcore_CG] (site GCGCGACCTAA) (LTG core: CT, RTG core: CG)	0.116
GCGCGACCTTGGGTTCTAACCTGTTGCTTTT [GCGCGACCTAA_LTGcore_CT_RTGcore_AA] (site GCGCGACCTAA) (LTG core: CT, RTG core: AA)	0.0792
GCGCGACTCTGGGTTCTAACCTGTTGCTTAG [GCGCGACCTAA_LTGcore_TC_RTGcore_CT] (site GCGCGACCTAA) (LTG core: TC, RTG core: CT)	0
GCGCGACTGTGGGTTCTAACCTGTTGCTTCA [GCGCGACCTAA_LTGcore_TG_RTGcore_TG] (site GCGCGACCTAA) (LTG core: TG, RTG core: TG)	0.0758

Sequence	recombinant barcode read abundance (log10)
GCGCGACTTTGGGTTCTAACCTGTTGCTTAG [GCGCGACCTAA_LTGcore_TT_RTGcore_CT] (site GCGCGACCTAA) (LTG core: TT, RTG core: CT)	0.109
GCGGGACATTGGGTTCTAACCTGTTGCCTAG [GCGGGACCTAG_LTGcore_AT_RTGcore_CT] (site GCGGGACCTAG) (LTG core: AT, RTG core: CT)	0.17
GCGGGACCATGGGTTCTAACCTGTTGCCTTG [GCGGGACCTAG_LTGcore_CA_RTGcore_CA] (site GCGGGACCTAG) (LTG core: CA, RTG core: CA)	0.182
GCGGGACCCTGGGTTCTAACCTGTTGCCTAG [GCGGGACCTAG_LTGcore_CC_RTGcore_CT] (site GCGGGACCTAG) (LTG core: CC, RTG core: CT)	1.21
GCGGGACCGTGGGTTCTAACCTGTTGCCTAG [GCGGGACCTAG_LTGcore_CG_RTGcore_CT] (site GCGGGACCTAG) (LTG core: CG, RTG core: CT)	0.76
GCGGGACCTTGGGTTCTAACCTGTTGCCTGC [GCGGGACCTAG_LTGcore_CT_RTGcore_GC] (site GCGGGACCTAG) (LTG core: CT, RTG core: GC)	1.08
GCGGGACCTTGGGTTCTAACCTGTTGCCTTA [GCGGGACCTAG_LTGcore_CT_RTGcore_TA] (site GCGGGACCTAG) (LTG core: CT, RTG core: TA)	1.18
GCGGGACCTTGGGTTCTAACCTGTTGCCTTC [GCGGGACCTAG_LTGcore_CT_RTGcore_GA] (site GCGGGACCTAG) (LTG core: CT, RTG core: GA)	1.19
GCGGGACGTTGGGTTCTAACCTGTTGCCTAC [GCGGGACCTAG_LTGcore_GT_RTGcore_GT] (site GCGGGACCTAG) (LTG core: GT, RTG core: GT)	0.163
GCGGGACTTTGGGTTCTAACCTGTTGCCTAG [GCGGGACCTAG_LTGcore_TT_RTGcore_CT] (site GCGGGACCTAG) (LTG core: TT, RTG core: CT)	0.13
GGACACCATTGGGTTCTAACCTGTTGCCTAG [GGACACCCTAG_LTGcore_AT_RTGcore_CT] (site GGACACCCTAG) (LTG core: AT, RTG core: CT)	0.15
GGACACCATTGGGTTCTAACCTGTTGCCTAT [GGACACCCTAG_LTGcore_AT_RTGcore_AT] (site GGACACCCTAG) (LTG core: AT, RTG core: AT)	0.145
GGACACCCTTGGGTTCTAACCTGTTGCCTAA [GGACACCCTAG_LTGcore_CT_RTGcore_TT] (site GGACACCCTAG) (LTG core: CT, RTG core: TT)	1.19
GGACACCCTTGGGTTCTAACCTGTTGCCTCC [GGACACCCTAG_LTGcore_CT_RTGcore_GG] (site GGACACCCTAG) (LTG core: CT, RTG core: GG)	0.904
GGACACCCTTGGGTTCTAACCTGTTGCCTCT [GGACACCCTAG_LTGcore_CT_RTGcore_AG] (site GGACACCCTAG) (LTG core: CT, RTG core: AG)	0.545
GGACACCCTTGGGTTCTAACCTGTTGCCTGG [GGACACCCTAG_LTGcore_CT_RTGcore_CC] (site GGACACCCTAG) (LTG core: CT, RTG core: CC)	0.503
GGACACCCTTGGGTTCTAACCTGTTGCCTTA [GGACACCCTAG_LTGcore_CT_RTGcore_TA] (site GGACACCCTAG) (LTG core: CT, RTG core: TA)	1.36
